# Values of other authors as cited in patent US20210360928A1, “ANTIMICROBIAL/ANTIVIRAL NONWOVEN AND APPLICATIONS OF THE SAME” (priority 2020, published 2021).
smiles,measurement,value
[Cl][Ag] [silver chloride],solubility in water,unusually insoluble in water
